Activity calls are given as the source filed them. No cut-off for these calls is given here.
Legend:
[1] = system: Mycobacterium tuberculosis; assay: Antimycobacterial activity against Mycobacterium tuberculosis H37Rv ACTT 25618 assessed as inhibition of visible growth incubated for 7 days by micro plate alamar blue assay; format: functional; conditions: H37Rv ACTT 25618, 168 h, time 7 day
[2] = Metabolic stability in human liver microsomes assessed as half life in presence of NADPH by LC/MS analysis; format: ADME, Microsome
[3] = Metabolic stability in human liver microsomes assessed as clearance in presence of NADPH by LC/MS analysis; format: ADME, Microsome; conditions: read-out: CLH
[4] = biological target: T1, Decaprenylphosphoryl-beta-D-ribose oxidase (Mycobacterium tuberculosis (strain ATCC 25618 / H37Rv), UniProt P9WJF1); assay: Inhibition of Mycobacterium tuberculosis recombinant DprE1 expressed in Escherichia coli assessed as formation of resorufin using FPR as substrate by Amplex Red […] coupled assay
T1 sequence (P9WJF1 whole entry): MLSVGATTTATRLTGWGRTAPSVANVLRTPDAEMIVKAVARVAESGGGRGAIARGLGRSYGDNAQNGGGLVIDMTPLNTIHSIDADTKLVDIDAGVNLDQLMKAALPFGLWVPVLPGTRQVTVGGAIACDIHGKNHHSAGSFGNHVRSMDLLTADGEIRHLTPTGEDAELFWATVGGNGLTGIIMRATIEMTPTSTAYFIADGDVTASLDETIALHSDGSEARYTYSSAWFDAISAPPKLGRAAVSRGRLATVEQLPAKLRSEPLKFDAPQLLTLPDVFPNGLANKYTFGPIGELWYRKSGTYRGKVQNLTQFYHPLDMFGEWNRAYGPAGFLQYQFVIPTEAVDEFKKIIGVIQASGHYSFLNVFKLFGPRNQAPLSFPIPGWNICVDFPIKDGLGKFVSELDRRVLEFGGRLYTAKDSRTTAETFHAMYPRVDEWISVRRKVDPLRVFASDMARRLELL

[5] = biological target: T2, Decaprenylphosphoryl-beta-D-ribose oxidase (Mycobacterium tuberculosis (strain ATCC 25618 / H37Rv)) (UniProt P9WJF1); assay: Inhibition of Mycobacterium tuberculosis H37Rv DprE1 assessed as increase in trehalose monomycolates accumulation at 100 x MIC incubated for 24 hrs using [14C]acetate by TLC based metabolic labelling assay
T2 sequence (whole entry): T1 sequence (P9WJF1 whole entry)

HepG2 = assay: Cytotoxicity against human HepG2 cells assessed as cell viability incubated for 48 hrs by CCK-8 assay; format: cell-based; conditions: hepg2, 48 h
[6] = biological target: T2, Decaprenylphosphoryl-beta-D-ribose oxidase (Mycobacterium tuberculosis (strain ATCC 25618 / H37Rv)); assay: Inhibition of Mycobacterium tuberculosis H37Rv DprE1 assessed as increase in trehalose dimycolates accumulation at 100 x MIC incubated for 24 hrs using [14C]acetate by TLC based metabolic labelling assay

SMILES	MIC [1]	other results
CN(Cc1cn(-c2c(F)cccc2F)nn1)c1nc(=O)c2cc(S(C)(=O)=O)cc([N+](=O)[O-])c2s1	0.28 µM	–
CS(=O)(=O)c1cc([N+](=O)[O-])c2sc(N3CCN(CC4CCCCC4)CC3)nc(=O)c2c1	–	half-life [2]: 25.8 min; CLint scaled [3]: 89.8 mL/min/kg
CN(Cc1csc(-c2cccc(F)c2)n1)c1nc(=O)c2cc(S(C)(=O)=O)cc([N+](=O)[O-])c2s1	0.024 µM	–
CN(Cc1cn(-c2cccc(C(F)(F)F)c2)nn1)c1nc(=O)c2cc(S(C)(=O)=O)cc([N+](=O)[O-])c2s1	0.044 µM	–
COc1cccc(-n2cc(CN(C)c3nc(=O)c4cc(S(C)(=O)=O)cc([N+](=O)[O-])c4s3)nn2)c1	0.199 µM	–
CN(Cc1cn(-c2cccc(I)c2)nn1)c1nc(=O)c2cc(S(C)(=O)=O)cc([N+](=O)[O-])c2s1	0.055 µM	–
CN(Cc1nnc(-c2ccc(F)cc2F)s1)c1nc(=O)c2cc(S(C)(=O)=O)cc([N+](=O)[O-])c2s1	0.023 µM	–
Cc1cccc(-n2cc(CN(C)c3nc(=O)c4cc(S(C)(=O)=O)cc([N+](=O)[O-])c4s3)nn2)c1	0.1 µM	–
CN(Cc1cn(Cc2cnoc2)nn1)c1nc(=O)c2cc(S(C)(=O)=O)cc([N+](=O)[O-])c2s1	> 2 µM	–
CN(Cc1nnc(-c2cc(F)cc(F)c2)o1)c1nc(=O)c2cc(S(C)(=O)=O)cc([N+](=O)[O-])c2s1	0.022 µM	–
CN(Cc1cn(-c2cccc(Cl)c2)nn1)c1nc(=O)c2cc(S(C)(=O)=O)cc([N+](=O)[O-])c2s1	0.089 µM	–
CN(Cc1cn(-c2cccc(Br)c2)nn1)c1nc(=O)c2cc(S(C)(=O)=O)cc([N+](=O)[O-])c2s1	0.044 µM	–
CN(Cc1nnc(-c2ccc(F)cc2)o1)c1nc(=O)c2cc(S(C)(=O)=O)cc([N+](=O)[O-])c2s1	0.061 µM	–
CN(Cc1cn(-c2ccc(F)c(F)c2)nn1)c1nc(=O)c2cc(S(C)(=O)=O)cc([N+](=O)[O-])c2s1	0.022 µM	–
CN(Cc1cn(-c2cccc(F)c2)nn1)c1nc(=O)c2cc(S(C)(=O)=O)cc([N+](=O)[O-])c2s1	0.014 µM	–
CN(Cc1cn(-c2cc(F)cc(F)c2)nn1)c1nc(=O)c2cc(S(C)(=O)=O)cc([N+](=O)[O-])c2s1	0.022 µM	–
CN(Cc1nnc(-c2cccc(F)c2)o1)c1nc(=O)c2cc(S(C)(=O)=O)cc([N+](=O)[O-])c2s1	0.049 µM	–
CN(Cc1coc(-c2ccccc2)n1)c1nc(=O)c2cc(S(C)(=O)=O)cc([N+](=O)[O-])c2s1	0.021 µM	IC50 [4]: 940 nM; half-life [2]: 21 min; CLint scaled [3]: 82.7 mL/min/kg
Cc1ccc(-n2cc(CN(C)c3nc(=O)c4cc(S(C)(=O)=O)cc([N+](=O)[O-])c4s3)nn2)cc1	0.115 µM	–
C[C@H](c1cn(-c2ccccc2)nn1)N(C)c1nc(=O)c2cc(S(C)(=O)=O)cc([N+](=O)[O-])c2s1	> 4.2 µM	–
CN(CCN(C)c1nc(=O)c2cc(S(C)(=O)=O)cc([N+](=O)[O-])c2s1)CC1CCCCC1	0.148 µM	–
CN(Cc1cn(-c2ccc(F)cc2)nn1)c1nc(=O)c2cc(S(C)(=O)=O)cc([N+](=O)[O-])c2s1	0.024 µM	–
CN(Cc1nnc(-c2ccccc2)s1)c1nc(=O)c2cc(S(C)(=O)=O)cc([N+](=O)[O-])c2s1	0.037 µM	half-life [2]: 13.2 min; CLint scaled [3]: 128 mL/min/kg
CN(Cc1cn(-c2ccccc2)nn1)c1nc(=O)c2cc(S(C)(=O)=O)cc([N+](=O)[O-])c2s1	0.0006 µM	IC50 [4]: 780 nM; Activity [5]: Active; Activity (HepG2): Non-Toxic; half-life [2]: 53.7 min; Activity [6]: Active; CLint scaled [3]: 32.4 mL/min/kg
CN(Cc1nnc(-c2ccc(F)cc2F)o1)c1nc(=O)c2cc(S(C)(=O)=O)cc([N+](=O)[O-])c2s1	0.045 µM	–
CN(Cc1csc(-c2ccc(F)cc2)n1)c1nc(=O)c2cc(S(C)(=O)=O)cc([N+](=O)[O-])c2s1	0.057 µM	–

SMILES	MIC [1]	other results
CN(Cc1cn(-c2cnoc2)nn1)c1nc(=O)c2cc(S(C)(=O)=O)cc([N+](=O)[O-])c2s1	0.065 µM	–
CN(Cc1cn(-c2ccc(F)cc2F)nn1)c1nc(=O)c2cc(S(C)(=O)=O)cc([N+](=O)[O-])c2s1	0.024 µM	–
CN(Cc1cn(-c2cccc(C#N)c2)nn1)c1nc(=O)c2cc(S(C)(=O)=O)cc([N+](=O)[O-])c2s1	0.048 µM	–
O=c1nc(N2CCN(CC3CCCCC3)CC2)sc2c([N+](=O)[O-])cc(C(F)(F)F)cc12 [MACOZINONE]	< 0.2 ng/mL	half-life [2]: 76.3 min; CLint scaled [3]: 22.8 mL/min/kg
CN(Cc1nnc(-c2ccccc2)o1)c1nc(=O)c2cc(S(C)(=O)=O)cc([N+](=O)[O-])c2s1	0.03 µM	IC50 [4]: 2100 nM; Activity [5]: Active; Activity (HepG2): Non-Toxic; half-life [2]: 45.9 min; Activity [6]: Active; CLint scaled [3]: 37.8 mL/min/kg
CN(Cc1nnc(-c2cc(F)cc(F)c2)s1)c1nc(=O)c2cc(S(C)(=O)=O)cc([N+](=O)[O-])c2s1	0.023 µM	–
CN(c1nc(=O)c2cc(S(C)(=O)=O)cc([N+](=O)[O-])c2s1)C1(c2cn(-c3ccccc3)nn2)CC1	> 4 µM	–
CCN(Cc1cn(-c2ccccc2)nn1)c1nc(=O)c2cc(S(C)(=O)=O)cc([N+](=O)[O-])c2s1	0.201 µM	–
CCS(=O)(=O)c1cc([N+](=O)[O-])c2sc(N3CCN(CC4CCCCC4)CC3)nc(=O)c2c1	< 0.001 µM	–
CN(Cc1nnc(-c2ccc(F)c(F)c2)o1)c1nc(=O)c2cc(S(C)(=O)=O)cc([N+](=O)[O-])c2s1	0.043 µM	–
CN(Cc1cn(C2CCCCC2)nn1)c1nc(=O)c2cc(S(C)(=O)=O)cc([N+](=O)[O-])c2s1	0.047 µM	–
CN(Cc1cn(Cc2ccccc2)nn1)c1nc(=O)c2cc(S(C)(=O)=O)cc([N+](=O)[O-])c2s1	0.309 µM	–
CN(Cc1nnc(-c2ccc(F)c(F)c2)s1)c1nc(=O)c2cc(S(C)(=O)=O)cc([N+](=O)[O-])c2s1	0.031 µM	–
CN(Cc1nnc(-c2ccc(F)cc2)s1)c1nc(=O)c2cc(S(C)(=O)=O)cc([N+](=O)[O-])c2s1	0.047 µM	–
C[C@@H](c1cn(-c2ccccc2)nn1)N(C)c1nc(=O)c2cc(S(C)(=O)=O)cc([N+](=O)[O-])c2s1	0.252 µM	–
CC(C)S(=O)(=O)c1cc([N+](=O)[O-])c2sc(N3CCN(CC4CCCCC4)CC3)nc(=O)c2c1	< 0.001 µM	–
CN(Cc1coc(C2CCCCC2)n1)c1nc(=O)c2cc(S(C)(=O)=O)cc([N+](=O)[O-])c2s1	0.433 µM	–
CN(Cc1csc(-c2ccccc2)n1)c1nc(=O)c2cc(S(C)(=O)=O)cc([N+](=O)[O-])c2s1	0.023 µM	half-life [2]: 16.2 min; CLint scaled [3]: 107 mL/min/kg
CN(Cc1cn(-c2ccccc2F)nn1)c1nc(=O)c2cc(S(C)(=O)=O)cc([N+](=O)[O-])c2s1	0.031 µM	–
CN(Cc1ccccc1)c1nc(=O)c2cc(S(C)(=O)=O)cc([N+](=O)[O-])c2s1	0.253 µM	–
CN(Cc1cn(-c2cc(F)ccc2F)nn1)c1nc(=O)c2cc(S(C)(=O)=O)cc([N+](=O)[O-])c2s1	0.011 µM	–
CN(Cc1ccc2c(c1)OCCO2)c1nc(=O)c2cc(S(C)(=O)=O)cc([N+](=O)[O-])c2s1	0.066 µM	–
CN(Cc1coc(-c2ccc(F)cc2)n1)c1nc(=O)c2cc(S(C)(=O)=O)cc([N+](=O)[O-])c2s1	0.031 µM	–
CN(Cc1nnc(-c2cccc(F)c2)s1)c1nc(=O)c2cc(S(C)(=O)=O)cc([N+](=O)[O-])c2s1	0.045 µM	–
CN(Cc1cn(-c2cccnc2)nn1)c1nc(=O)c2cc(S(C)(=O)=O)cc([N+](=O)[O-])c2s1	0.533 µM	–
